# Measurements published in patent publication US10676462B2, “Quinoline derivative” (ONO PHARMACEUTICAL CO., LTD., priority 2013, dated 2020).
# Target: T1, Ba/F3 Axl (Homo sapiens, UniProt P30530)
# T1 sequence (P30530 1-894): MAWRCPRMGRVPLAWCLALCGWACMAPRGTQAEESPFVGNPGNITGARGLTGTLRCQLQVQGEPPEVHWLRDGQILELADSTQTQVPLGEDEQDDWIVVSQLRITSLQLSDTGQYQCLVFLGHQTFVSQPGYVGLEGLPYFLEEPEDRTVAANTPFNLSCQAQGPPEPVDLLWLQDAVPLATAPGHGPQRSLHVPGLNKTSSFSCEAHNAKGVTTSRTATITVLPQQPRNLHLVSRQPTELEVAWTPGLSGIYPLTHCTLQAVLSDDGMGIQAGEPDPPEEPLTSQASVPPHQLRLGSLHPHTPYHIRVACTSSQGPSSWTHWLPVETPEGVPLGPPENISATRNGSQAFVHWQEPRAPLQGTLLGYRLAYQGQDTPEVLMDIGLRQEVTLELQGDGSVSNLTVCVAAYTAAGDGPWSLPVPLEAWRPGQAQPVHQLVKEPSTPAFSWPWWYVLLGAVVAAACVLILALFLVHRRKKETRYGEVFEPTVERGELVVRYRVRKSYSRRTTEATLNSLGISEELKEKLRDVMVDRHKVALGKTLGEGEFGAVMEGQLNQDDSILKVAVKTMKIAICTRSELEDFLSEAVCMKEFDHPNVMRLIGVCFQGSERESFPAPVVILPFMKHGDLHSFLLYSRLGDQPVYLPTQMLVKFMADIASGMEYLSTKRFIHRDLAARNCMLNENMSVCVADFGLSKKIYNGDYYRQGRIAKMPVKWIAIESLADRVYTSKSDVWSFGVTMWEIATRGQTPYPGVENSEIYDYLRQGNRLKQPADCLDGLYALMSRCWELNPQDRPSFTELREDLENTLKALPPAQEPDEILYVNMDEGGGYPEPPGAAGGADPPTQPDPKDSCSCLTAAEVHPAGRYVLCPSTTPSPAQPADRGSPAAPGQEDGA
# Test: Proliferation suppression rate using mouse pro-B cell line (Ba/F3 Axl) stably expressing Axl
# Format: cell-based
# Conditions: Ba/F3 Axl cells, 48 hours, CellTiter-Glo; read-out: IC50 value, proliferation suppression of Ba/F3 Axl
# Procedure: Biological Example 2: Measurement of Proliferation Suppression Rate by Using Mouse Pro-B Cell Line (Ba/F3 Axl) Stably Expressing Axl
# A 0.1 mmol/L DMSO solution of the test compound was dispensed into a 96-well plate, and a 3-fold dilution series was prepared using DMSO. DMSO solutions of test compounds, having various concentrations, were further 500-fold diluted with a RPMI1640 medium (containing 10% HI-FBS, 1% penicillin) and a diluted solution of the test compound having […] with respect to the final concentration was prepared. In each well of the 96-well plate (BD Biosciences) for measurement, 50 μL of a RPMI medium was added to the Blank group, 50 μL of a RPMI medium containing 0.2% DMSO was added to the medium group, and 50 μL of the diluted solution of the test compound was added to the test compound group, respectively. Ba/F3 Axl was diluted with a medium to have a density of 2×10^5 cells/mL to prepare a cell suspension. In each well of the 96-well plate for measurement, 50 μL each of the RPMI medium was added to the Blank group, and 50 μL each of the cell suspension to the medium group and the test compound group, respectively, and the groups were stood still at 37° C. at 5% CO2 for 48 hours. After standing still, Relative Light Unit (RLU) was measured by using CELLTITER-GLO (registered trademark) LUMINESCENT CELL VIABILITY ASSAY (Promega). The measurement was carried out according to the attached instruction. To each well, 100 μL each of light-emitting solution was added. The plate was stirred at room temperature for 3 min and then stool still at room temperature with light shielded for 10 min, and RLU was measured by using Microplate Reader (SpectraMax M5e, Molecular Devices). The average values of RLU of the Blank group and the medium group were respectively calculated, and the proliferation suppression rate of the test compound group was calculated. Proliferation suppression rate (%)={1−(RLU of test compound group−A)/(B−A)}×100 [Math. 2] A: average value of RLU of Blank group B: average value of RLU of medium group
# A value of 50% inhibition rate (IC50 value) of the test compound was calculated from the inhibition curve based on the inhibition rate in each concentration of the test compound.
row,GI50,SMILES
1,0.8 nM,"COc1cc2nccc(Oc3ccc(NC(=O)c4cc5c(n(-c6ccccc6)c4=O)CC(C)(C)CC5=O)nc3)c2cc1OC [Example 5(1), N-{5-[(6,7-dimethoxy-4-quinolinyl)oxy]-2-pyridinyl}-7,7-dimethyl-2,5-dioxo-1-phenyl-1,2,5,6,7,8-hexahydro-3-quinolinecarboxamide]"
2,1.2 nM,"O=C1CCCc2c1cc(C(=O)Nc1ccc(Oc3ccnc4cc(OCCCN5CCOCC5)ccc34)cn1)c(=O)n2-c1ccccc1 [Example 17(2), N-[5-({7-[3-(4-morpholinyl)propoxy]-4-quinolinyl}oxy)-2-pyridinyl]2,5-dioxo-1-phenyl-1,2,5,6,7,8-hexahydro-3-quinolinecarboxamide]"
3,1.2 nM,"COc1cc2nccc(Oc3ccc(NC(=O)c4cc5c(n(-c6ccccc6)c4=O)CCCC5=O)c(C)c3)c2cc1OC [Example 23(2), N-{4-[(6,7-dimethoxy-4-quinolinyl)oxy]-2-methylphenyl}-2,5-dioxo-1-phenyl-1,2,5,6,7,8-hexahydro-3-quinolinecarboxamide]"

row,SMILES,GI50
1,"COc1cc2nccc(Oc3ccc(NC(=O)c4cc5c(n(-c6ccccc6)c4=O)CCCC5=O)nc3)c2cc1OC [Example 5, N-{5-[(6,7-dimethoxy-4-quinolinyl)oxy]-2-pyridinyl}-2,5-dioxo-1-phenyl-1,2,5,6,7,8-hexahydro-3-quinolinecarboxamide]",0.7 nM
